This note sets out measurements from ChEMBL document CHEMBL6103613 (J Med Chem, 2025).

Structures are written as SMILES. Converted amounts (≈) assume the structure as drawn. The source made the active and inactive calls. Positions of bridges follow the written chain, without caps; N, C: chain ends. Non-standard residues stand in square brackets, D forms with d. Residues, ends and D or L forms follow the SMILES beside them. *: point of attachment. X1 = CC[C@H](C)CCCCC(=O)*; dDab = NCC[C@@H](N)C(=O)O; Dab = NCC[C@H](N)C(=O)O

Series [1] relates to Staphylococcus aureus. Kind of series: Drug resistance, ratio of MIC for Staphylococcus aureus after 6 passages to MIC for Staphylococcus aureus during first exposure. The class given is functional.
Series [2] deals with Staphylococcus aureus. Kind of series: Drug resistance, ratio of MIC for Staphylococcus aureus after 21 passages to MIC for Staphylococcus aureus during first exposure. The series is classed as functional.
Series [3] has as its system Staphylococcus aureus. Kind of series: Drug resistance, ratio of MIC for Staphylococcus aureus after 15 passages to MIC for Staphylococcus aureus during first exposure. The series is classed as functional.
For series [4], the system named is Staphylococcus aureus. Kind of series: Drug resistance, ratio of MIC for Staphylococcus aureus after 12 passages to MIC for Staphylococcus aureus during first exposure. The class given is functional.
The subject of series [5] is Staphylococcus epidermidis. Kind of series: Antimicrobial activity against Staphylococcus epidermidis ATCC 12228 assessed as inhibition of visible bacterial growth incubated for 18 hrs by CLSI based analysis. The series is classed as functional.
For another series, the system named is Enterococcus gallinarum. The series is described as follows: Antimicrobial activity against Enterococcus gallinarum ATCC 49573 assessed as inhibition of visible bacterial growth incubated for 18 hrs by CLSI based analysis. The series is classed as functional.
For series [6], the system named is Staphylococcus aureus. Kind of series: Antimicrobial activity against methicillin-resistant Staphylococcus aureus clinical isolate 3 assessed as inhibition of visible bacterial growth incubated for 18 hrs by CLSI based analysis. The series is classed as functional.
The subject of series [7] is Staphylococcus aureus. Kind of series: Antimicrobial activity against methicillin-resistant Staphylococcus aureus clinical isolate 2 assessed as inhibition of visible bacterial growth incubated for 18 hrs by CLSI based analysis. The series is classed as functional.
The subject of series [8] is Staphylococcus aureus. Kind of series: Antimicrobial activity against Staphylococcus aureus ATCC 25923 assessed as inhibition of visible bacterial growth incubated for 18 hrs by CLSI based analysis. The class given is functional.
Series [9] concerns Staphylococcus aureus. Kind of series: Antibacterial activity against methicillin-resistant Staphylococcus aureus infected in kunming mouse keratitis model assessed as log reduction in colony count at 5 mg/kg, ip measured upto 8 days. The series is classed as functional. To be noted: time <= 8 day.
The subject of a further series is Enterococcus faecium. The series is described as follows: Antimicrobial activity against vancomycin-resistant Enterococcus faecium assessed as inhibition of visible bacterial growth incubated for 18 hrs by CLSI based analysis. The series is classed as functional.
Another series deals with Enterococcus faecalis. The series is described as follows: Antimicrobial activity against Enterococcus faecalis ATCC 19433 assessed as inhibition of visible bacterial growth incubated for 18 hrs by CLSI based analysis. The class given is functional.
In series [10] the test system is Staphylococcus aureus. Kind of series: Antimicrobial activity against methicillin-resistant Staphylococcus aureus clinical isolate 4 assessed as inhibition of visible bacterial growth incubated for 18 hrs by CLSI based analysis. The series is classed as functional.
Series [11] deals with Staphylococcus aureus. The series is described as follows: Antimicrobial activity against methicillin-resistant Staphylococcus aureus ATCC 43300 assessed as inhibition of visible bacterial growth incubated for 18 hrs by CLSI based analysis. The series is classed as functional.
The test system of another series is Bacillus subtilis. The series is described as follows: Antimicrobial activity against Bacillus subtilis ATCC 23875 assessed as inhibition of visible bacterial growth incubated for 18 hrs by CLSI based analysis. The series is classed as functional.
For series [12], the system named is Cell membrane. The series is described as follows: Disruption of cell membrane integrity in Staphylococcus aureus at 4 times of MIC incubated for 30 mins by Propidium iodide staining based analysis. The class given is subcellular.
Series [13] relates to Cell membrane. Kind of series: Disruption of cell membrane integrity in Staphylococcus aureus at 4 times of MIC incubated for 1 mins by Propidium iodide staining based analysis. The series is classed as subcellular.
Series [14] relates to Staphylococcus aureus. The series is described as follows: Antimicrobial activity against Staphylococcus aureus assessed as inhibition of visible bacterial growth incubated for 18 hrs by CLSI based analysis. The series is classed as functional.
A further series deals with Candida albicans. Kind of series: Antifungal activity against Candida albicans assessed as reduction in fungal growth incubated for 18 hrs by CLSI based analysis. The class given is functional.
Another series relates to Escherichia coli. Kind of series: Antimicrobial activity against Escherichia coli assessed as inhibition of visible bacterial growth incubated for 18 hrs by CLSI based analysis. The class given is functional.
Series [15] in a line: Hemolytic activity against mouse Red blood cell incubated for 1 hr. The series is classed as toxicity, cell-based. Particulars: erythrocyte.
Series [16] is described as follows: Hemolytic activity against mouse Red blood cells at 100 microg/ml incubated for 1 hr relative to control. The class given is toxicity, cell-based, Erythrocyte. To be noted: at 100 µg/mL, read-out: Activity.
Series [17] is described as follows: Therapeutic index, ratio of HC5 for hemolytic activity in mouse Red blood cell to MIC for antimicrobial activity against Staphylococcus aureus ATCC 25923 assessed as inhibition of visible bacterial growth. The series is classed as toxicity, cell-based, RBC. To be noted: red blood cells, read-out: TI.
Series [18] relates to Staphylococcus aureus. The series is described as follows: Antibacterial activity against methicillin-resistant Staphylococcus aureus infected in kunming mouse pneumonia model assessed as decrease in IL-6 expression in lung at 5 mg/kg, ip measured upto 8 days. The class given is functional, organism-based. To be noted: time <= 8.0 day.
The test system of series [19] is Staphylococcus aureus. The series is described as follows: Antibacterial activity against methicillin-resistant Staphylococcus aureus infected in kunming mouse pneumonia model assessed as decrease in TNF-alpha expression in lung at 5 mg/kg, ip measured upto 8 days. The class given is functional, organism-based. To be noted: time <= 8.0 day.
Series [20] deals with Staphylococcus aureus. The series is described as follows: Antibacterial activity against methicillin-resistant Staphylococcus aureus infected in kunming mouse pneumonia model assessed as decrease in IL-10 expression in lung at 5 mg/kg, ip measured upto 8 days. The series is classed as functional, organism-based. To be noted: time <= 8.0 day.
Series [21] deals with Staphylococcus aureus. Kind of series: Antimicrobial activity against Staphylococcus aureus assessed as reduction in bacterial growth at 2 times MIC incubated for 24 hrs by time-killing assay. The class given is functional, organism-based.

On to `CC1(C)S[C@@H]2[C@H](NC(=O)[C@H](N)c3ccc(O)cc3)C(=O)N2[C@H]1C(=O)O` [AMOXICILLIN], for which the Ratio is 10 in the series with Staphylococcus aureus [1], 250 with Staphylococcus aureus [2], 250 in the series on Staphylococcus aureus [3] and 30 with Staphylococcus aureus [4].
For `CC(=O)NC[C@H]1CN(c2ccc(N3CCOCC3)c(F)c2)C(=O)O1` [LINEZOLID], the MIC amounted to 0.39 µg/mL (≈ 1.16 µM) in [5]; 1.56 µg/mL (≈ 4.62 µM) with Enterococcus gallinarum; 1.56 µg/mL (≈ 4.62 µM) with Staphylococcus aureus [6]; 3.13 µg/mL (≈ 9.28 µM) with Staphylococcus aureus [7]; 1.56 µg/mL (≈ 4.62 µM) in the series with Staphylococcus aureus [8]; 1.56 µg/mL (≈ 4.62 µM) in the series with Enterococcus faecium. For the same compound, the MIC in the series on Enterococcus faecalis, in the series on Staphylococcus aureus [10], with Staphylococcus aureus [11] and in the series on Bacillus subtilis was 1.56 µg/mL (≈ 4.62 µM) throughout. The FC in the series on Staphylococcus aureus [9] came out at 0.864.
In the case of `CC(C)CCCCC(=O)N[C@@H](CCN)C(=O)N[C@H](C(=O)N[C@@H](CCN)C(=O)N[C@H]1CCNC(=O)[C@H]([C@@H](C)O)NC(=O)[C@H](CCN)NC(=O)[C@H](CCN)NC(=O)[C@H](CC(C)C)NC(=O)[C@@H](Cc2ccccc2)NC(=O)[C@@H](CCN)NC1=O)[C@@H](C)O.CC[C@H](C)CCCCC(=O)N[C@@H](CCN)C(=O)N[C@H](C(=O)N[C@@H](CCN)C(=O)N[C@H]1CCNC(=O)[C@H]([C@@H](C)O)NC(=O)[C@H](CCN)NC(=O)[C@H](CCN)NC(=O)[C@H](CC(C)C)NC(=O)[C@@H](Cc2ccccc2)NC(=O)[C@@H](CCN)NC1=O)[C@@H](C)O` (X1-[Dab]T[Dab][Dab][dDab][dF]L[Dab][Dab]T; lactam 4-C), the Activity in the series on Cell membrane [12] came out at 38%; with Cell membrane [13] it was 5.54%.
Take `CC(C)C[C@H]1NC(=O)[C@H](Cc2c(C(c3ccccc3)(c3ccccc3)c3ccccc3)[nH]c3ccccc23)NC(=O)[C@@H](C(C)C)NC(=O)[C@@H]2CSC(N2)[C@H](C(C)C)NC(=O)[C@@H](CCCCN)NC(=O)[C@H](C(C)C)NC1=O`: the MIC in the series on Staphylococcus aureus [14] was determined as 3.13 µg/mL (≈ 2.97 µM); in [5], 6.25 µg/mL (≈ 5.93 µM); with Enterococcus gallinarum it was 6.25 µg/mL (≈ 5.93 µM); in the series on Staphylococcus aureus [6], 6.25 µg/mL (≈ 5.93 µM); with Staphylococcus aureus [7] it was 3.13 µg/mL (≈ 2.97 µM); in the series on Staphylococcus aureus [8], 3.13 µg/mL (≈ 2.97 µM). Moreover, the MIC was 3.13 µg/mL (≈ 2.97 µM) in the series with Candida albicans; 3.13 µg/mL (≈ 2.97 µM) in the series on Escherichia coli; 12.5 µg/mL (≈ 11.9 µM) in the series with Enterococcus faecium; 12.5 µg/mL (≈ 11.9 µM) in the series with Enterococcus faecalis; 6.25 µg/mL (≈ 5.93 µM) in the series on Staphylococcus aureus [10]; 3.13 µg/mL (≈ 2.97 µM) in the series on Staphylococcus aureus [11]. Further, the MIC in the series on Bacillus subtilis was 6.25 µg/mL (≈ 5.93 µM). The compound also registered an HC5 in series [15] of 44.04 µg/mL. Besides, the hemolysis at 1 h, 100 microg/ml in series [16] worked out at 23%. For the same compound, the selectivity ratio in [17] was determined as 14.1.
On to `CN[C@H](CC(C)C)C(=O)N[C@H]1C(=O)N[C@@H](CC(N)=O)C(=O)N[C@H]2C(=O)N[C@H]3C(=O)N[C@H](C(=O)N[C@H](C(=O)O)c4cc(O)cc(O)c4-c4cc3ccc4O)[C@H](O)c3ccc(c(Cl)c3)Oc3cc2cc(c3O[C@@H]2O[C@H](CO)[C@@H](O)[C@H](O)[C@H]2O[C@H]2C[C@](C)(N)[C@H](O)[C@H](C)O2)Oc2ccc(cc2Cl)[C@H]1O` [VANCOMYCIN], for which the MIC amounted to 0.39 µg/mL (≈ 0.269 µM) in series [5]; 3.13 µg/mL (≈ 2.16 µM) in the series with Enterococcus gallinarum; 0.78 µg/mL (≈ 0.538 µM) in the series on Staphylococcus aureus [6]; 3.13 µg/mL (≈ 2.16 µM) in the series with Staphylococcus aureus [7]; 0.78 µg/mL (≈ 0.538 µM) in the series on Staphylococcus aureus [8]; 25 µg/mL (≈ 17.3 µM) in the series with Enterococcus faecium. Further, the MIC with Enterococcus faecalis was 0.39 µg/mL (≈ 0.269 µM); with Staphylococcus aureus [10], 1.56 µg/mL (≈ 1.08 µM); with Staphylococcus aureus [11] it was 0.78 µg/mL (≈ 0.538 µM); in the series with Bacillus subtilis, 0.39 µg/mL (≈ 0.269 µM). The outcome in the series with Staphylococcus aureus [18], with Staphylococcus aureus [19] and with Staphylococcus aureus [20] was Active. Also, the result in the series with Staphylococcus aureus [21] was inactive.
As to `CC(C)C[C@H]1NC(=O)[C@H](Cc2c(C(c3ccccc3)(c3ccccc3)c3ccccc3)[nH]c3ccccc23)NC(=O)[C@@H](CCCCN)NC(=O)[C@@H]2CSC(N2)[C@H](C(C)C)NC(=O)[C@@H](C(C)C)NC(=O)[C@H](C(C)C)NC1=O`, the MIC in the series with Staphylococcus aureus [14] was found to be 3.13 µg/mL (≈ 2.97 µM); in [5], 12.5 µg/mL (≈ 11.9 µM); with Enterococcus gallinarum it was 12.5 µg/mL (≈ 11.9 µM); in the series with Staphylococcus aureus [6], 25 µg/mL (≈ 23.7 µM); in the series with Staphylococcus aureus [7] it was 12.5 µg/mL (≈ 11.9 µM); with Staphylococcus aureus [8], 6.25 µg/mL (≈ 5.93 µM). The MIC with Candida albicans amounted to 3.13 µg/mL (≈ 2.97 µM); in the series with Escherichia coli it was 3.13 µg/mL (≈ 2.97 µM); with Enterococcus faecium, 25 µg/mL (≈ 23.7 µM); in the series with Enterococcus faecalis, 12.5 µg/mL (≈ 11.9 µM); in the series with Staphylococcus aureus [10], 12.5 µg/mL (≈ 11.9 µM); in the series with Staphylococcus aureus [11] it was 12.5 µg/mL (≈ 11.9 µM). Further, the MIC with Bacillus subtilis stood at 6.25 µg/mL (≈ 5.93 µM). This compound came in with an HC5 in [15] of 46.47 µg/mL. Besides, the selectivity ratio in series [17] was found to be 7.44.

For orientation: MIC means the smallest concentration in the dilution series that meets the test's criterion for growth inhibition.
